ChEMBL document CHEMBL3297692, “Discovery of naphthyl-fused 5-membered lactams as a new class of m1 positive allosteric modulators” (ACS Med Chem Lett, 2014)
Converted amounts (≈) assume the structure as drawn. The source made the active and inactive calls. The rule behind the calls is not given here.

What was measured:
[1] = molecular target: T1, Muscarinic acetylcholine receptor M1 (Homo sapiens) (UniProt P11229); assay: Positive allosteric modulation of human mAChR1 expressed in CHONFAT cells assessed as potention of acetylcholine-induced effect incubated for 4 mins prior to acetylcholine addition measured after 4 mins by FLIPR assay; format: cell-based
T1 sequence (whole entry): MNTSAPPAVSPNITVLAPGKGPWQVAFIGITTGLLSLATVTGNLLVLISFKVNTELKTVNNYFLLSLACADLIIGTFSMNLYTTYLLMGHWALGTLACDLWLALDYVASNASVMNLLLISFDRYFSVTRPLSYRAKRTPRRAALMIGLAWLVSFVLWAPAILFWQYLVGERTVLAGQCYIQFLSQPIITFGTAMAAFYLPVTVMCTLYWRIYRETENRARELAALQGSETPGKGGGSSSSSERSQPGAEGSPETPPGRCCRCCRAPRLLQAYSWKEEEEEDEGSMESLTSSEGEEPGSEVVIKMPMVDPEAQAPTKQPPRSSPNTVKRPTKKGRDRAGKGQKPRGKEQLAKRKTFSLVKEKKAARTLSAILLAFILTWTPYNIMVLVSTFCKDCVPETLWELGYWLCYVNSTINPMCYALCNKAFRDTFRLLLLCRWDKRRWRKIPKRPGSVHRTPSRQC

[2] = Plasma protein binding in human by equilibrium dialysis method; format: ADME, cell-free; settings: read-out: PPB (converted)
[3] = Apparent passive permeability of the compound; format: physicochemical; settings: not told
[4] = Plasma protein binding in rat by equilibrium dialysis method; format: ADME, cell-free; settings: read-out: PPB (converted)
MDR1a = assay: Effect on rat MDR1a-mediated drug transport assessed as efflux ratio of permeability from basolateral to apical side over apical to basolateral side; format: ADME; settings: not told
[5] = molecular target: MDR1 (ABCB1, P-glycoprotein) (Homo sapiens, UniProt P08183); assay: Effect on human MDR1-mediated drug transport assessed as efflux ratio of permeability from basolateral to apical side over apical to basolateral side; format: ADME; settings: not told
Nucleic Acid = assay: Ratio of drug uptake in Sprague-Dawley rat cerebrospinal fluid to unbound plasma level in rat; format: ADME
Plasma [6] = assay: Plasma concentration in Sprague-Dawley rat at 10 mg/kg, po; format: ADME, organism-based; design: dose 10 mg/kg, route oral; settings: in vivo
Cerebrospinal fluid = assay: Drug uptake in cerebrospinal fluid in Sprague-Dawley rat at 10 mg/kg, po; format: ADME, organism-based; design: dose 10 mg/kg, route oral; settings: in vivo, read-out: Drug uptake
[7] = Solubility of the compound at pH 2; format: physicochemical; settings: buffer
[8] = Solubility of the compound at pH 7; format: physicochemical; settings: buffer
[9] = Lipophilicity, log D of the compound by HPLC analysis; format: physicochemical
Mus musculus [10] = assay: Reversal of scopolamine-induced memory deficit in ip dosed B6SJL mouse contextual fear conditioning model at 1 uM plasma level after 30 mins relative to vehicle-treated control; format: functional, organism-based
Plasma [11] = assay: Plasma concentration in B6SJL mouse contextual fear conditioning model at 1 mg/kg, ip; format: ADME, organism-based; design: dose 1 mg/kg, route intraperitoneal; settings: in vivo
[12] = molecular target: T1, Muscarinic acetylcholine receptor M1 (Homo sapiens); assay: Potentiation of human mAChR1 expressed in CHONFAT cells assessed as fold shift in acetylcholine response curve at 1.8 uM incubated for 4 mins prior to acetylcholine addition measured after 4 mins relative to control; format: cell-based
[13] = Volume of distribution at steady state in rat at 2 mg/kg, iv; format: ADME, organism-based; design: dose 2 mg/kg, route intravenous; settings: in vivo, read-out: Vdss
[14] = Fraction unbound in rat plasma by equilibrium dialysis method; format: ADME, cell-free
[15] = molecular target: T1, Muscarinic acetylcholine receptor M1 (Homo sapiens); assay: Potentiation of human mAChR1 expressed in CHONFAT cells assessed as fold shift acetylcholine response curve incubated for 4 mins prior to acetylcholine addition measured after 4 mins relative to control; format: cell-based
[16] = Half life in rat at 2 mg/kg, iv; format: ADME, organism-based; design: dose 2 mg/kg, route intravenous; settings: in vivo
[17] = Fraction unbound in human plasma by equilibrium dialysis method; format: ADME, cell-free
[18] = Clearance in dog at 0.125 mg/kg, iv; format: ADME, organism-based, Canis lupus familiaris; design: dose 0.125 mg/kg, route intravenous; settings: in vivo
[19] = Volume of distribution at steady state in dog at 0.125 mg/kg, iv; format: ADME, organism-based, Canis lupus familiaris; design: dose 0.125 mg/kg, route intravenous; settings: in vivo, read-out: Vdss
[20] = Half life in dog at 0.125 mg/kg, iv; format: ADME, organism-based, Canis lupus familiaris; design: dose 0.125 mg/kg, route intravenous; settings: in vivo
Mus musculus [21] = assay: Reversal of scopolamine-induced memory deficit in B6SJL mouse contextual fear conditioning model at 1 mg/kg, ip after 30 mins relative to vehicle-treated control; format: functional, organism-based; design: dose 1 mg/kg
[22] = Clearance in rat at 2 mg/kg, iv; format: ADME, organism-based; design: dose 2 mg/kg, route intravenous; settings: in vivo

MDR1 (ABCB1, P-glycoprotein), sequence (P08183 whole entry): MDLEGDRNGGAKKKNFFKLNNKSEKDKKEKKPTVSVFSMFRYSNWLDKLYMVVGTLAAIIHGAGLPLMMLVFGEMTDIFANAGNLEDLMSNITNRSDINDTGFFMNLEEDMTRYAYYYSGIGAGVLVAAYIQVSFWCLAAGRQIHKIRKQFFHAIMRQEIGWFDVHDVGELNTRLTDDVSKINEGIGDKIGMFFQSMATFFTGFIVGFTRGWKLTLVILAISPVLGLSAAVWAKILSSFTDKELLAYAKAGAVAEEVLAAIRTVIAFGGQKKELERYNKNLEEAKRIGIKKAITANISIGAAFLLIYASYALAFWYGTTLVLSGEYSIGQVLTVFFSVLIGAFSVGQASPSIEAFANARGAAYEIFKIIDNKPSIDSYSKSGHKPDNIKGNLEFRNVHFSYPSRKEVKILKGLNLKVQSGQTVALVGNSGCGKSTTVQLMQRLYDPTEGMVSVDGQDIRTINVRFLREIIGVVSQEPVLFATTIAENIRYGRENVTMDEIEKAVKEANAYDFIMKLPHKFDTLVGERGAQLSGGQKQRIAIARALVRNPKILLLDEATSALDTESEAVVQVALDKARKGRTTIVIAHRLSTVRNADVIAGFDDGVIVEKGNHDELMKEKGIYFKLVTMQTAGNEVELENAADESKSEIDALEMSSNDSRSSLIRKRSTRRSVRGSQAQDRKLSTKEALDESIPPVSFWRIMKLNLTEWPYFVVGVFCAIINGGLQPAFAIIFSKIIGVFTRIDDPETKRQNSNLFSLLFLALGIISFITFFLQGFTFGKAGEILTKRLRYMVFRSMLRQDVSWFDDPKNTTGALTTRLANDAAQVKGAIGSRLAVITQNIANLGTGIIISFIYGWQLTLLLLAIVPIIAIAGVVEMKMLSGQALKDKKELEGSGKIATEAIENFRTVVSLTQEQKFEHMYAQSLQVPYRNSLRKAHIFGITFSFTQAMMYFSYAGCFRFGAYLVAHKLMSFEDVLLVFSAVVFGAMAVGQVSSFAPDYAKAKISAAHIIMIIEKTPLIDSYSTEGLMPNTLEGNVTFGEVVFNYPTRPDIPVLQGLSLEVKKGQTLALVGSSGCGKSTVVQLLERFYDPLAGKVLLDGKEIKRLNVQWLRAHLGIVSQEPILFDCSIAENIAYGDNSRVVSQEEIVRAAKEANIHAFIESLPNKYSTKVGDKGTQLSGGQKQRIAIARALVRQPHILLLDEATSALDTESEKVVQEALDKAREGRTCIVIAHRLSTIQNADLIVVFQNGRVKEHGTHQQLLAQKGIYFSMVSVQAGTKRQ

Row | SMILES | IP [1] | fraction unbound [2] | Papp [3] | fraction unbound [4] | efflux ratio (MDR1a) | efflux ratio [5] | further results
1 | N#CC1(c2ccccn2)CCN(Cc2cc3c(c4ccccc24)CN(C2CCCOC2)C3=O)CC1 (centres undefined) | 1500 nM | – | – | – | – | – | –
2 | O=C1c2cc(CN3CCC(F)(c4ccccn4)CC3)c3ccccc3c2CN1[C@H]1CCCC[C@@H]1O | 58 nM | 0.03 | 34 ×10⁻⁶ cm/s | 0.015 | 2.7 | 2.1 | –
3 | N#CC1(c2ccccn2)CCN(Cc2cc3c(c4ccccc24)CN([C@@H]2CCCC[C@H]2O)C3=O)CC1 | 540 nM | – | – | – | – | – | –
4 | Cc1ccnc(C2(C#N)CCN(Cc3cc4c(c5ccccc35)CN([C@H]3CCCC[C@@H]3O)C4=O)CC2)c1 | 16 nM | 0.006 | 22 ×10⁻⁶ cm/s | 0.007 | 4.5 | 1.3 | Ratio (Nucleic Acid): 0.52; concentration (Plasma [6]): 2340 nM; concentration (Cerebrospinal fluid): 8.6 nM; solubility [7]: 179 µM (≈ 88.5 µg/mL); solubility [8]: 3 µM (≈ 1.48 µg/mL); logD [9]: 3.3
5 | N#CC1(c2cccnc2)CCN(Cc2cc3c(c4ccccc24)CN([C@H]2CCCC[C@@H]2O)C3=O)CC1 | 22 nM | – | 32 ×10⁻⁶ cm/s | – | – | – | –
6 | N#CC1(c2ccccn2)CCN(Cc2cc(C(=O)O)c(=O)n3ccccc23)CC1 | – | – | – | – | – | – | Activity (Mus musculus [10]): Active
7 | N#CC1(c2ccccn2)CCN(Cc2cc3c(c4ccccc24)CN(C2CCOCC2)C3=O)CC1 | 280 nM | – | – | – | – | – | –
8 | N#CC1(c2cccnn2)CCN(Cc2cc3c(c4ccccc24)CN([C@H]2CCCC[C@@H]2O)C3=O)CC1 | 27 nM | 0.144 | 27 ×10⁻⁶ cm/s | 0.146 | – | – | –
9 | N#CC1(c2ccncn2)CCN(Cc2cc3c(c4ccccc24)CN([C@H]2CCCC[C@@H]2O)C3=O)CC1 | 17 nM | 0.09 | 29 ×10⁻⁶ cm/s | 0.07 | 20 | 6 | –
10 | CC1c2c(cc(CN3CCC(C#N)(c4ccccn4)CC3)c3ccccc23)C(=O)N1[C@H]1CCCC[C@@H]1O (mixture of isomers) | 19 nM | 0.06 | 29 ×10⁻⁶ cm/s | 0.014 | 4.1 | 1.7 | Ratio (Nucleic Acid): 0.3; concentration (Plasma [6]): 1120 nM; concentration (Cerebrospinal fluid): 4.7 nM; solubility [7]: 198 µM; solubility [8]: 19 µM; logD [9]: 3.4
11 | N#CC1(c2ccccn2)CCN(Cc2cc3c(c4ccccc24)CN(c2ccccc2F)C3=O)CC1 | 290 nM | – | – | – | – | – | –
12 | N#CC1(c2ccncc2)CCN(Cc2cc3c(c4ccccc24)CN([C@H]2CCCC[C@@H]2O)C3=O)CC1 | 22 nM | – | 30 ×10⁻⁶ cm/s | – | 49 | 26 | –
13 | N#CC1(c2cnccn2)CCN(Cc2cc3c(c4ccccc24)CN([C@H]2CCCC[C@@H]2O)C3=O)CC1 | 31 nM | 0.086 | 31 ×10⁻⁶ cm/s | 0.142 | 11 | 8 | –
14 | Cc1cccc(C2(C#N)CCN(Cc3cc4c(c5ccccc35)CN([C@H]3CCCC[C@@H]3O)C4=O)CC2)n1 | 27 nM | 0.01 | 28 ×10⁻⁶ cm/s | 0.01 | 3.1 | 1.5 | –
15 | N#CC1(c2ccccc2)CCN(Cc2cc3c(c4ccccc24)CN([C@H]2CCCC[C@@H]2O)C3=O)CC1 | 83 nM | 0.011 | 23 ×10⁻⁶ cm/s | 0.006 | 3.4 | 1.7 | –
16 | N#CC1(c2ccccn2)CCN(Cc2cc3c(c4ccccc24)CN([C@H]2CCCC[C@H]2O)C3=O)CC1 | 150 nM | – | – | – | – | – | –
17 | N#CC1(c2ccccn2)CCN(Cc2cc3c(c4ccccc24)CN([C@H]2CCCC[C@@H]2O)C3=O)CC1 | 15 nM | 0.08 | 34 ×10⁻⁶ cm/s | 0.05 | 4.3 | 3.2 | Ratio (Nucleic Acid): 0.51; concentration (Plasma [11]): 1500 nM; fold change (FC) [12]: 40; Vd [13]: 2.8 L/kg; concentration (Plasma [6]): 5180 nM; fraction unbound [14]: 0.05; Activity [15]: Dose-dependent effect; concentration (Cerebrospinal fluid): 134 nM; half-life [16]: 12 h; solubility [7]: 195 µM (≈ 93.7 µg/mL); solubility [8]: 11 µM (≈ 5.29 µg/mL); fraction unbound [17]: 0.08; clearance [18]: 2.1 mL/min/kg; Vd [19]: 1.2 L/kg; logD [9]: 2.9; half-life [20]: 6.7 h; Activity (Mus musculus [21]): Active; clearance [22]: 4.1 mL/min/kg
